Results on 16 compounds are retold here after patent US11401270B2, “Alcoxyamino derivatives for treating pain and pain related conditions” (ESTEVE PHARMACEUTICALS, S.A., priority 2017, dated 2022).

Molecules are shown by their SMILES.

For the assay, the target named is Human α2δ-1 subunit of Cav2.2 calcium channel (Homo sapiens (Human), UniProt P54289). Put plainly: Binding Assay to Human α2δ-1 Subunit of Cav2.2 Calcium Channel. Conditions: Table 1; human α2δ-1 enriched membranes, 15 nM [3H]-Gabapentin; read-out: Ki(nM) alpha2delta Hum. Here is the method: Binding Assay to Human α2δ-1 Subunit of Cav2.2 Calcium Channel.
Human α2δ-1 subunit of Cav2.2 calcium channel, sequence (P54289 25-1103): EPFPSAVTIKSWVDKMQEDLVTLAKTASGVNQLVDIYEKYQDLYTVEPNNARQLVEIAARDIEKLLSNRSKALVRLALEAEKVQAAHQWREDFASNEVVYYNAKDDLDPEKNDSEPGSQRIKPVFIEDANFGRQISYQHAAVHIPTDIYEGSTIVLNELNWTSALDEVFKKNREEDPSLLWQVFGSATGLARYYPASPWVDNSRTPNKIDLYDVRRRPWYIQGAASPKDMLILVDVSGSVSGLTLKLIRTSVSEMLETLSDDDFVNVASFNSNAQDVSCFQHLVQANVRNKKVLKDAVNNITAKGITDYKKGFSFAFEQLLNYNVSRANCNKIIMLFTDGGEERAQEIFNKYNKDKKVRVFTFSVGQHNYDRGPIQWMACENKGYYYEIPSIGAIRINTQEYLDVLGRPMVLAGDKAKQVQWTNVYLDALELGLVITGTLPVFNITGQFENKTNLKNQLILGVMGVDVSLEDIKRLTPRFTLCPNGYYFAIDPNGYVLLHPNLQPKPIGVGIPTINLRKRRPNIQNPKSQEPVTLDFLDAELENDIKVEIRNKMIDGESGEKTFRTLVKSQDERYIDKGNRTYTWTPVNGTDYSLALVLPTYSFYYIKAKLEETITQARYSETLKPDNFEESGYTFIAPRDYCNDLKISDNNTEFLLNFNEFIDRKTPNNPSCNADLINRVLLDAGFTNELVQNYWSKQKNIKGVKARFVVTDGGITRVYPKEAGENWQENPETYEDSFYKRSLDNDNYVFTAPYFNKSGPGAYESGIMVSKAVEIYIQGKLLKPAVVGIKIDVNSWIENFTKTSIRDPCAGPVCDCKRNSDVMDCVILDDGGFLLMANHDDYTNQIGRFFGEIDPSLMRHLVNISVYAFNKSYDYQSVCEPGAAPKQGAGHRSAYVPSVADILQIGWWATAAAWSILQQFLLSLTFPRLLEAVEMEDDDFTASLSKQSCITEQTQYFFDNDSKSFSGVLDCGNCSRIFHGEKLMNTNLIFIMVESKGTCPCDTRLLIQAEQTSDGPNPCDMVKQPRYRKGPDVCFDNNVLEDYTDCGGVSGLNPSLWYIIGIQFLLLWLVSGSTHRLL
NSB (non specific binding) was measured by adding 10 μM pregabalin. The binding of the test compound was measured in five different concentrations. After 60 min incubation at 27° C., binding reaction was terminated by filtering through Multiscreen GF/C (Millipore) presoaked in 0.5% polyethyleneimine in Vacuum Manifold Station, followed by 3 washes with ice-cold filtration buffer containing 50 mM Tris-HCl, pH 7.4.
Filter plates were dried at 60° C. for 1 hour and 30 μl of scintillation cocktail were added to each well before radioactivity reading.
Regarding `CCNC1CCCN(c2cccc(O[C@@H](CCNC)c3cccs3)c2)C(=O)C1` (single isomer, unassigned) [Example 118a], the Ki fell in the range of 500 to 3000 nM.
With `CCNC1CCCN(c2cccc(O[C@@H](CCNC)c3cccs3)c2)C(=O)C1` (single isomer, unassigned) [Example 118b] the figure was 500 to 3000 nM; with `CNCCC(Oc1cccc(C(=O)N2CCCN(C)CC2)c1)c1cccs1` (stereo not shown) [Example 2, (4-Methyl-1,4-diazepan-1-yl)(3-(3-(methylamino)-1-(thiophen-2-yl)propoxy)phenyl)methanone], 500 to 3000 nM.
`CNCCC(Oc1cccc(C(=O)N2CCN(C)c3ccccc3C2)c1)c1cccs1` (stereo not shown) [Example 4, (1-Methyl-1,2,3,5-tetrahydro-4H-benzo[e][1,4]diazepin-4-yl)(3-(3-(methylamino)-1-(thiophen-2-yl)propoxy)phenyl)methanone]: the Ki is 500 to 3000 nM.
The figure for `CNCCC(Oc1cccc(N2CCCN(C)CC2)c1)c1ccccc1` (stereo not shown) [Example 5, N-methyl-3-(3-(4-methyl-1,4-diazepan-1-yl)phenoxy)-3-phenylpropan-1-amine] is 500 to 3000 nM.
With `CNCCC(Oc1cccc(N2CCCN(C)CC2)c1)c1cccs1` (stereo not shown) [Example 8, N-methyl-3-(3-(4-methyl-1,4-diazepan-1-yl)phenoxy)-3-(thiophen-2-yl)propan-1-amine], the Ki lay within 100 to 500 nM.
In the case of `CNCCC(Oc1cccc(N2CCN(C)c3ccccc3C2)c1)c1cccs1` (stereo not shown) [Example 9, N-methyl-3-(3-(1-methyl-1,2,3,5-tetrahydro-4H-benzo[e][1,4]diazepin-4-yl)phenoxy)-3-(thiophen-2-yl)propan-1-amine], the Ki is > 3000 nM.
With `CCNCC(=O)N1CCCN(c2cccc(OC(CCNC)c3cccs3)c2)CC1` (stereo not shown) [Example 11, 2-(Ethylamino)-1-(4-(3-(3-(methylamino)-1-(thiophen-2-yl)propoxy)phenyl)-1,4-diazepan-1-yl)ethan-1-one] the figure was 500 to 3000 nM; with `CNCC[C@H](OCc1cccc(N2CCCN(C)CC2)c1)c1ccccc1` [Example 12, (S)-N-methyl-3-((3-(4-methyl-1,4-diazepan-1-yl)benzyl)oxy)-3-phenylpropan-1-amine], > 3000 nM.
Regarding `CNCC[C@@H](OCc1cccc(N2CCCN(C)CC2)c1)c1ccccc1` [Example 13, (R)-N-methyl-3-((3-(4-methyl-1,4-diazepan-1-yl)benzyl)oxy)-3-phenylpropan-1-amine], the Ki is 500 to 3000 nM.
As to `CNCC[C@@H](OCc1cccc(N2CCN(C)c3ccccc3C2=O)c1)c1cccs1` [Example 14, (R)-1-methyl-4-(3-((3-(methylamino)-1-(thiophen-2-yl)propoxy)methyl)phenyl)-1,2,3,4-tetrahydro-5H-benzo[e][1,4]diazepin-5-one], the Ki lay within 100 to 500 nM.
As to `CNCC[C@H](OCc1cccc(N2CCN(C)c3ccccc3C2=O)c1)c1cccs1` [Example 15, (S)-1-methyl-4-(3-((3-(methylamino)-1-(thiophen-2-yl)propoxy)methyl)phenyl)-1,2,3,4-tetrahydro-5H-benzo[e][1,4]diazepin-5-one], the Ki was > 3000 nM.
With `CNCCC(OCc1cccc(N2CCCCCC2=O)c1)c1cccs1` (stereo not shown) [Example 16, 1-(3-((3-(Methylamino)-1-(thiophen-2-yl)propoxy)methyl)phenyl)azepan-2-one] the figure was 500 to 3000 nM; with `CNCCC(Oc1cccc(N2CCCCCC2=O)c1)c1cccs1` (stereo not shown) [Example 17, 1-(3-(3-(Methylamino)-1-(thiophen-2-yl)propoxy)phenyl)azepan-2-one], > 3000 nM; with `CCN[C@@H]1CCCCN(c2cccc(O[C@@H](CCNC)c3cccs3)c2)C1=O` [Example 18, (R)-3-(ethylamino)-1-(3-((S)-3-(methylamino)-1-(thiophen-2-yl)propoxy)phenyl)azepan-2-one], 500 to 3000 nM.
With `CCN[C@H]1CCCCN(c2cccc(O[C@@H](CCNC)c3cccs3)c2)C1=O` [Example 19, (S)-3-(ethylamino)-1-(3-((S)-3-(methylamino)-1-(thiophen-2-yl)propoxy)phenyl)azepan-2-one] the figure was 500 to 3000 nM.
